Assay results as given in patent US20030159171A1, “Novel plant genes and uses thereof” (Syngenta Participations AG, priority 1999, published 2003).

System: sugarbeet NIM-like clone (SEQ ID NO:39 and 63)
Assay: Northern analysis of sugarbeet NIM-like clone expression after BTH treatment
Type: in vivo, Beta vulgaris
Conditions: after 100 μM or 300 μM BTH treatment

With `CSC(=O)c1cccc2nnsc12` [BTH, benzo(1,2,3)thiadiazole-7-carbothioic acid S-methyl ester] the “increase of expression of the sugarbeet NIM-like clone (Northern data)” value was “three to seven”.
